Results: US10240255B2 (priority 2007, dated 2019)

Key:
[1] = test system: BioMAP® systems (primary human cells); format: cell-based
[2] = test system: endothelial cells and PBMC

## CO/C(=C/C(N)=O)[C@H](C)[C@H](/C=C/c1csc(-c2csc([C@@H](C)/C=C/C=C/C(C)C)n2)n1)OC [Myxothiazol]
[1]
  IL1 level: upregulation
  MCP1 level: inhibition
  T cell activation: inhibition
  VCAM level: upregulation
  proliferation: inhibition

## COC[C@H]1OC(=O)c2coc3c2[C@@]1(C)C1=C(C3=O)[C@@H]2CCC(=O)[C@@]2(C)C[C@H]1OC(C)=O [Wortmannin]
[2]
  cytotoxicity: not cytotoxic

## C=C(CC)C(=O)c1ccc(OCC(=O)O)c(Cl)c1Cl [ethacrynic acid]
[2]; 10 μM
  E-selectin level: inhibition
  HLA-DR level: inhibition
  PBMC proliferation: inhibition
  T cell activation: inhibition
  VCAM level: inhibition
  monocyte activation: inhibition
